“And” between values parts separate entries of the source, which are not always exact repeats. Equal entries are not always repeated. Marks after values point to notes of the source that are not given here.
Experiments:
[1] = Single i.v. dose of tariquidar in humans; assay type: in vivo; conditions: single i.v. dose of 2 mg/kg, from Cmax
[2] = test system: P-gp at the BBB
[3] = test system: P-gp; conditions: read-out: half-maximum inhibition constant (IC50); substrate transport by P-gp in vitro; cited from earlier work
[4] = humans, ref personal communication Dr. U. Elben, Aväant Pharmaceuticals; cited from earlier work
[5] = humans, single i.v. dose of 2 mg/kg, cited from earlier work
[6] = test system: P-gp; conditions: mice, P-gp substrate loperamide, conventional biodistribution; cited from earlier work
[7] = test system: P-gp at the BBB; assay: in vivo; conditions: Wistar Unilever, rat
[8] = Metabolism of; conditions: tariquidar 15 mg/kg i.v.
[9] = 2T4K model, tariquidar 15 mg/kg i.v. 2 h before PET scan (n=5)
[10] = 2T4K model, with vs without tariquidar 15 mg/kg i.v.

COc1cc2c(cc1OC)CN(CCc1ccc(NC(=O)c3cc(OC)c(OC)cc3NC(=O)c3cnc4ccccc4c3)cc1)CC2 [tariquidar]
unbound concentration [1]: about 0.012 μM
Increase of K1 after tariquidar, 1T2K model ([2]; 1T2K model, tariquidar treatment): +632%
DV of (R)-11C-verapamil with tariquidar [2, 9]: 3.68±0.81 mL·mL^−1 and 3.68±0.81 (3) mL·mL^−1
K1 of (R)-11C-verapamil with tariquidar [2, 9]: 0.58±0.20 (9) mL·mL^−1·min^−1
k2 of (R)-11C-verapamil with tariquidar [2, 9]: 0.27±0.07 (43) min^−1
k3 of (R)-11C-verapamil with tariquidar [2, 9]: 0.37±0.17 (66) min^−1
k4 of (R)-11C-verapamil with tariquidar [2, 9]: 0.66±0.49 (55) min^−1
Relative change of k2 [2, 10]: −23%
Relative change of k3 [2, 10]: +27%
Relative change of k4 [2, 10]: −9%
DV (Logan) of (R)-11C-verapamil with tariquidar ([2]; Logan analysis, tariquidar 15 mg/kg i.v. 2 h before PET scan (n=5)): 3.53±0.79 (1) mL·mL^−1
Relative change of DV (Logan) ([2]; Logan analysis, with vs without tariquidar 15 mg/kg i.v.): +1,007^† %
Emax ([2]; maximum effect (DV) of dose-response fit, estimate±asymptotic standard error): 4.5±3.8
Time of peak uptake of activity in brain after tariquidar injection ([2]; scan 2, 0-90 min after tariquidar 15 mg/kg i.v.): 32 ± 5 min
Brain uptake of activity after tariquidar vs baseline PET scans ([2]; tariquidar 15 mg/kg): about 12 fold
Increase of DV of (R)-11C-verapamil after tariquidar vs baseline ([2]; tariquidar 15 mg/kg i.v., rat brain): 12 fold
IC50 [3]: 40 nM and ~40 nM
bound to plasma proteins [4]: 99.5%
Tolerability [5]: well tolerated
Cmax ([5]; read-out: maximum plasma concentrations (Cmax)): ~2300 nM
ED50 [6]: 5.6 mg/kg
ED50 at 2 h [7]: 8.4 ± 9.5 mg/kg
Effect of tariquidar administration on metabolism of (R)-11C-verapamil [8]: essentially left unaffected

— paper PMC3690700 (Journal of nuclear medicine : official publication, Society …, 2008)
